According to patent publication US4065620A, “3-(Substituted) vinyl cephalosporins” (Eli Lilly and Company, priority 1971, dated 1977):
In brackets after ≈: the same amount, converted by molar mass.

Key:
Format in all cases: cell-based
B. subtilis = test: Bioautograph test against B. subtilis; details: at 1 microgram/milliliter
Protocol: Each of the cis-and trans-isomers of tert-butyl 3-(2'-cyanovinyl)-7-phenoxyacetamido-3-cephem-4-carboxylate from Example 17 was in turn treated with 98-100 percent formic acid for 1 hour at room temperature to cleave the tert-butyl ester groups therefrom. After evaporation under reduced pressure of the excess formic acid, the acid residue was separated as an oil.

Sarcina lutea = test: Bioautograph against Sarcina lutea
Protocol: (§1) A solution of 25 mg. of tert-butyl 7-(2'-tert-butoxycarbonylamino-2'-phenylacetamido)-3-(2'-tert-butoxycarbonylvinyl)-3-cephem-4-carboxylate, prepared as described in Example 19, in 5 cc of 98-100 percent formic acid was allowed to stand for 1 hour at room temperature. After evaporating under reduced pressure the formic acid, the acid residue was taken up in trifluoroacetic acid and the NMR spectrum was taken.

[1] = tested on: Gram positive and Gram negative microorganisms; test: Disc plate assay; details: variety of Gram positive and Gram negative microorganisms
Protocol: as §1

[2] = tested on: Gram positive and Gram negative microorganisms; test: Standard gradient plate assay, Gram positive and Gram negative microorganisms
Source text: (§2) The data which follow are minimum inhibitory concentrations (MIC) in micrograms of compound per milliliter of agar medium in standard gradient plate in vitro tests against various Gram positive and Gram negative microorganisms. The data given here are for compounds satisfying the general formula [drawing 25] where R and X are as defined in the table which follows:
(§3) 1. The gradient plate procedure used is essentially that described by
(§4) Bryson and Szybalski in 1952 (Science, 116, pp. 45-46). The inoculum

[3] = tested on: Pseudomonas aerogenosa X-528; test: Gradient plate in vitro MIC, X528; details: X528, G-; for MIC: Pseudomonas, read-out: minimum inhibitory concentration (MIC)
Source text: as §2, §3, §4
(§5) 3. Gram negative microorganism identifications:
X-528 is Pseudomonas aerogenosa

[4] = tested on: Enterobacter aerogenes X-68; test: Gradient plate in vitro MIC, X68; details: X68, G-; for MIC: Klebsiella aerogenes, read-out: minimum inhibitory concentration (MIC)
Source text: as §2, §3, §4, §5
X-68 is Enterobacter aerogenes

Serratia marcescens X-99 = test: Gradient plate in vitro MIC, X99; details: X99, G-; for MIC: Serratia marcescens, read-out: minimum inhibitory concentration (MIC)
Source text: as §2, §3, §4, §5
X-99 is Serratia marcescens

[5] = tested on: penicillin-resistant Staphylococcus aureus strain V-84; test: Gradient plate in vitro MIC, strain V84; details: V84, G+; for MIC: Staphylococcus aureus, read-out: minimum inhibitory concentration (MIC)
Source text: as §2, §3, §4
(§6) treatment method used for penicillin-resistant Staphlococci was reported
(§7) by Godzeski et al. in Antimicrobial Agents and Chemotherapy, May, 1961,
(§8) 2. Gram positive microorganism identifications are all
(§9) penicillin-resistant Staphylococcus aureus strains V-41, V-32, X-400,
(§10) V-84. X-400 is also Methicillin-resistant.

[6] = tested on: penicillin-resistant, Methicillin-resistant Staphylococcus aureus strain X-400; test: Gradient plate in vitro MIC, strain X400; details: X400, G+, penicillin- and Methicillin-resistant; for MIC: Staphylococcus aureus, read-out: minimum inhibitory concentration (MIC)
Source text: as §2, §3, §4, §6, §7, §8, §9, §10

[7] = tested on: Salmonella heidellberg X-514; test: Gradient plate in vitro MIC, X514; details: X514, G-; for MIC: Salmonella, read-out: minimum inhibitory concentration (MIC)
Source text: as §2, §3, §4, §5
X-514 is Salmonella heidellberg

Escherichia coli N-10 = test: Gradient plate in vitro MIC, N10; details: N10, G-; for MIC: Escherichia coli, read-out: minimum inhibitory concentration (MIC)
Source text: as §2, §3, §4, §5
N-10 is Escherichia coli

Schigella sp. N-9 = test: Gradient plate in vitro MIC, N9; details: N9, G-; for MIC: read-out: minimum inhibitory concentration (MIC)
Source text: as §2, §3, §4

[8] = tested on: penicillin-resistant Staphylococcus aureus strain V-41; test: Gradient plate in vitro MIC, strain V41; details: V41, G+, read-out: minimum inhibitory concentration (MIC)
Source text: as §2, §3, §4, §6, §7, §8, §9, §10

[9] = tested on: Klebsiella pneumonia X-26; test: Gradient plate in vitro MIC, X26; details: X26, G-; for MIC: Klebsiella pneumoniae, read-out: minimum inhibitory concentration (MIC)
Source text: as §2, §3, §4, §5
X-26 is Klebsiella pneumonia

[10] = tested on: penicillin-resistant Staphylococcus aureus strain V-32; test: Gradient plate in vitro MIC, strain V32; details: V32, G+; for MIC: Staphylococcus aureus, read-out: minimum inhibitory concentration (MIC)
Source text: as §2, §3, §4, §6, §7, §8, §9, §10

N#C/C=C\C1=C(C(=O)O)N2C(=O)C(NC(=O)COc3ccccc3)C2SC1 (single isomer, unassigned; isomer 3) [Example 20 cis-isomer, 3-(2-cyanovinyl)-7-phenoxyacetamido-3-cephem-4-carboxylic acid]
antibiotic activity zone on bioautograph (B. subtilis): large antibiotic activity zone

NC(C(=O)NC1C(=O)N2C(C(=O)O)=C(C=CC(=O)O)CS[C@H]12)c1ccccc1 (stereo partly shown) [Example 23, 7-(2'-amino-2'-phenylacetamido)-3-(2'-carboxyvinyl)-3-cephem-4-carboxylic acid]
antibiotically active zone on bioautograph (Sarcina lutea; acid residue after formic acid/trifluoroacetic acid): only one antibiotically active zone | polarity of the active zone on the bioautograph (Sarcina lutea; compared with cephalexin): more polar than cephalexin | antibiotic activity in disc plate assay [1]: antibiotic activity

N#C/C=C/C1=C(C(=O)O)N2C(=O)C(NC(=O)COc3ccccc3)C2SC1 (single isomer, unassigned; isomer 3) [Example 20 trans-isomer, 3-(2-cyanovinyl)-7-phenoxyacetamido-3-cephem-4-carboxylic acid]
antibiotic activity zone on bioautograph (B. subtilis): large antibiotic activity zone | gradient plate MIC, trans-isomer compared with cis-isomer ([2]; against both Gram positive and Gram negative microorganisms): more active than the cis-isomer

O=C(O)C=CC1=C(C(=O)O)N2C(=O)C(NC(=O)[C@H](O)c3ccccc3)C2SC1 (stereo partly shown)
MIC [3]: > 50 µg/mL | MIC [4]: 1 µg/mL (≈ 2.47 µM) | MIC (Serratia marcescens X-99): > 50 µg/mL | MIC [5]: 11.2 µg/mL (≈ 27.7 µM) | MIC [6]: > 20 µg/mL | MIC [7]: 0.6 µg/mL (≈ 1.48 µM) | MIC (Escherichia coli N-10): 5.7 µg/mL (≈ 14.1 µM) | MIC (Schigella sp. N-9): 3.3 µg/mL (≈ 8.16 µM) | MIC [8]: > 20 µg/mL | MIC [9]: 5 µg/mL (≈ 12.4 µM) | MIC [10]: > 20 µg/mL

CCOC(=O)C=CC1=C(C(=O)O)N2C(=O)C(NC(=O)C(C(=O)O)c3ccccc3)[C@H]2SC1 (stereo partly shown) [7-(2'-carboxy-2'-phenylacetamido)-3-(2'-ethoxycarbonylvinyl)-3-cephem-4-carboxylic acid]
MIC [3]: 42.2 µg/mL (≈ 91.6 µM) | MIC [4]: 3 µg/mL (≈ 6.52 µM) | MIC (Serratia marcescens X-99): 0.6 µg/mL (≈ 1.3 µM) | MIC [5]: 11.4 µg/mL (≈ 24.8 µM) | MIC [6]: > 20 µg/mL | MIC [7]: 0.8 µg/mL (≈ 1.74 µM) | MIC (Escherichia coli N-10): 6.3 µg/mL (≈ 13.7 µM) | MIC (Schigella sp. N-9): 1 µg/mL (≈ 2.17 µM) | MIC [8]: 7.9 µg/mL (≈ 17.2 µM) | MIC [9]: 2.5 µg/mL (≈ 5.43 µM) | MIC [10]: 10.3 µg/mL (≈ 22.4 µM)

3-(2-cyanovinyl)-7-phenoxyacetamido-3-cephem-4-carboxylic acid
minimum inhibitory concentration (MIC) [3]: 162.0 micrograms of compound per mil | minimum inhibitory concentration (MIC) [4]: 38.2 micrograms of compound per mil | minimum inhibitory concentration (MIC) (Serratia marcescens X-99): 21.0 micrograms of compound per mil | minimum inhibitory concentration (MIC) [5]: 3.8 micrograms of compound per mil | minimum inhibitory concentration (MIC) [6]: > 20 micrograms of compound per mil | minimum inhibitory concentration (MIC) [7]: 12.1 micrograms of compound per mil | minimum inhibitory concentration (MIC) (Escherichia coli N-10): 102.0 micrograms of compound per mil | minimum inhibitory concentration (MIC) (Schigella sp. N-9): 40.4 micrograms of compound per mil | minimum inhibitory concentration (MIC) [9]: 110.0 micrograms of compound per mil | minimum inhibitory concentration (MIC) [10]: 6.1 micrograms of compound per mil

CCOC(=O)C=CC1=C(C(=O)O)N2C(=O)C(NC(=O)COc3ccccc3)[C@H]2SC1 (stereo partly shown) [Example 3, 3-(2'-ethoxycarbonylvinyl)-7-phenoxyacetamido-3-cephem-4-carboxylic acid]
activity as an antibiotic in gradient plate tests ([2]; variety of both Gram positive and Gram negative microorganisms): showed activity as an antibiotic

CCOC(=O)C=CC1=C(C(=O)O)N2C(=O)C(NC(=O)Cc3cccs3)C2SC1 (stereo not shown)
MIC [3]: > 50 µg/mL | MIC [4]: 3.3 µg/mL (≈ 7.81 µM) | MIC (Serratia marcescens X-99): > 50 µg/mL | MIC [5]: 7.1 µg/mL (≈ 16.8 µM) | MIC [6]: > 20 µg/mL | MIC [7]: 4.7 µg/mL (≈ 11.1 µM) | MIC (Escherichia coli N-10): 3.8 µg/mL (≈ 8.99 µM) | MIC (Schigella sp. N-9): 2.6 µg/mL (≈ 6.15 µM) | MIC [8]: 6.2 µg/mL (≈ 14.7 µM) | MIC [9]: 5.3 µg/mL (≈ 12.5 µM) | MIC [10]: 7.5 µg/mL (≈ 17.8 µM)

O=C(O)C=CC1=C(C(=O)O)N2C(=O)C(NC(=O)C(C(=O)O)c3ccccc3)[C@H]2SC1 (stereo partly shown) [7-(2'-carboxy-2'-phenylacetamido)-3-(2'-carboxyvinyl)-3-cephem-4-carboxylic acid]
MIC [3]: 29.5 µg/mL (≈ 68.2 µM) | MIC [4]: 2 µg/mL (≈ 4.63 µM) | MIC (Serratia marcescens X-99): < 8 µg/mL | MIC [5]: > 20 µg/mL | MIC [6]: > 20 µg/mL | MIC [7]: 1 µg/mL (≈ 2.31 µM) | MIC (Escherichia coli N-10): 36.5 µg/mL (≈ 84.4 µM) | MIC (Schigella sp. N-9): 7 µg/mL (≈ 16.2 µM) | MIC [8]: > 20 µg/mL | MIC [9]: 35 µg/mL (≈ 80.9 µM) | MIC [10]: > 20 µg/mL
